Assay results taken from ChEMBL document CHEMBL2417479, “Effects of the methoxy group in the side chain of debromoaplysiatoxin on its tumor-promoting and anti-proliferative activities” (Bioorg Med Chem Lett, 2013).

How the values were obtained:
Mus musculus [1] = assay: In vivo tumor-promoting activity in DMBA-treated ICR mouse assessed as increase in number of papillomas at 1.7 nmol administered twice per week measured at 13 to 20 weeks by two-stage carcinogenesis assay; type: ADME, organism-based
Mus musculus [2] = assay: In vivo tumor-promoting activity in DMBA-treated ICR mouse assessed as increase in number of papillomas at 3.4 nmol administered twice per week measured at 11 to 20 weeks by two-stage carcinogenesis assay; type: ADME, organism-based
Mus musculus [3] = assay: In vivo tumor-promoting activity in DMBA-treated ICR mouse assessed as tumor bearing mouse at 1.7 nmol administered twice per week measured after 20 weeks by two-stage carcinogenesis assay relative to control; type: ADME, organism-based; details: 3360 h
Mus musculus [4] = assay: In vivo tumor-promoting activity in DMBA-treated ICR mouse assessed as tumor bearing mouse at 3.4 nmol administered twice per week measured after 20 weeks by two-stage carcinogenesis assay relative to control; type: ADME, organism-based; details: 3360 h
[5] = Cytotoxicity against human Raji cells assessed as cell viability at 10^-7 M relative to control; type: cell-based; details: read-out: Activity
[6] = Cytotoxicity against human Raji cells assessed as cell viability at 10^-6 M relative to control; type: cell-based; details: read-out: Activity
[7] = Cytotoxicity against human Raji cells assessed as cell viability at 10^-8 M relative to control; type: cell-based; details: read-out: Activity
Raji [8] = assay: Tumor-promoting activity against human Raji cells expressing EBV-EA at 10^-6 M after 48 hrs by indirect immunofluorescence assay relative to control; type: ADME, cell-based; details: 1 µM
Raji [9] = assay: Tumor-promoting activity against human Raji cells expressing EBV-EA at 10^-8 M after 48 hrs by indirect immunofluorescence assay relative to control; type: ADME, cell-based; details: 0.01 µM
Raji [10] = assay: Tumor-promoting activity against human Raji cells expressing EBV-EA at 10^-7 M after 48 hrs by indirect immunofluorescence assay relative to control; type: ADME, cell-based; details: 0.1 µM
DU-145 = assay: Growth inhibition of human DU145 cells after 48 hrs by SRB assay; type: functional; details: DU-145, 48 h
PC-3 = assay: Growth inhibition of human PC3 cells after 48 hrs by SRB assay; type: functional; details: PC-3, 48 h
MKN-74 = assay: Growth inhibition of human MKN74 cells after 48 hrs by SRB assay; type: functional; details: MKN-74, 48 h
MKN-45 = assay: Growth inhibition of human MKN45 cells after 48 hrs by SRB assay; type: functional; details: MKN-45, 48 h
MKN-28 = assay: Growth inhibition of human MKN28 cells after 48 hrs by SRB assay; type: functional; details: MKN-28, 48 h
MKN-7 = assay: Growth inhibition of human MKN7 cells after 48 hrs by SRB assay; type: functional; details: MKN-7, 48 h
[11] = Growth inhibition of human MKN1 cells after 48 hrs by SRB assay; type: functional; details: MKN-1, 48 h
St-4 = assay: Growth inhibition of human St-4 cells after 48 hrs by SRB assay; type: functional; details: St-4, 48 h
ACHN = assay: Growth inhibition of human ACHN cells after 48 hrs by SRB assay; type: functional
[12] = Growth inhibition of human RXF631L cells after 48 hrs by SRB assay; type: functional; details: RXF 631, 48 h
SK-OV-3 = assay: Growth inhibition of human SKOV3 cells after 48 hrs by SRB assay; type: functional; details: SK-OV-3, 48 h
OVCAR-8 = assay: Growth inhibition of human OVCAR8 cells after 48 hrs by SRB assay; type: functional; details: OVCAR-8, 48 h
OVCAR-4 = assay: Growth inhibition of human OVCAR4 cells after 48 hrs by SRB assay; type: functional; details: OVCAR-4, 48 h
OVCAR-5 = assay: Growth inhibition of human OVCAR5 cells after 48 hrs by SRB assay; type: functional; details: OVCAR-5, 48 h
OVCAR-3 = assay: Growth inhibition of human OVCAR3 cells after 48 hrs by SRB assay; type: functional; details: OVCAR-3, 48 h
DMS-114 = assay: Growth inhibition of human DMS114 cells after 48 hrs by SRB assay; type: functional; details: DMS-114, 48 h
LOX IMVI = assay: Growth inhibition of human LOXIMVI cells after 48 hrs by SRB assay; type: functional
DMS-273 = assay: Growth inhibition of human DMS273 cells after 48 hrs by SRB assay; type: functional; details: DMS-273, 48 h
A549 = assay: Growth inhibition of human A549 cells after 48 hrs by SRB assay; type: functional; details: A549, 48 h
NCI-H522 = assay: Growth inhibition of human NCI-H522 cells after 48 hrs by SRB assay; type: functional; details: NCI-H522, 48 h
NCI-H460 = assay: Growth inhibition of human NCI-H460 cells after 48 hrs by SRB assay; type: functional; details: NCI-H460, 48 h
NCI-H226 = assay: Growth inhibition of human NCI-H226 cells after 48 hrs by SRB assay; type: functional; details: NCI-H226, 48 h
HCT-116 = assay: Growth inhibition of human HCT116 cells after 48 hrs by SRB assay; type: functional; details: HCT-116, 48 h
NCI-H23 = assay: Growth inhibition of human NCI-H23 cells after 48 hrs by SRB assay; type: functional; details: NCI-H23, 48 h
HCT-15 = assay: Growth inhibition of human HCT15 cells after 48 hrs by SRB assay; type: functional; details: HCT-15, 48 h
KM12 = assay: Growth inhibition of human KM12 cells after 48 hrs by SRB assay; type: functional; details: KM12, 48 h
HT-29 = assay: Growth inhibition of human HT-29 cells after 48 hrs by SRB assay; type: functional; details: HT-29, 48 h
[13] = Growth inhibition of human HCC2998 cells after 48 hrs by SRB assay; type: functional; details: HCC 2998, 48 h
SNB-78 = assay: Growth inhibition of human SNB-78 cells after 48 hrs by SRB assay; type: functional; details: SNB-78, 48 h
SNB-75 = assay: Growth inhibition of human SNB75 cells after 48 hrs by SRB assay; type: functional; details: SNB-75, 48 h
SF-539 = assay: Growth inhibition of human SF539 cells after 48 hrs by SRB assay; type: functional; details: SF-539, 48 h
SF-295 = assay: Growth inhibition of human SF295 cells after 48 hrs by SRB assay; type: functional; details: SF-295, 48 h
SF-268 = assay: Growth inhibition of human SF268 cells after 48 hrs by SRB assay; type: functional; details: SF-268, 48 h
U-251 = assay: Growth inhibition of human U251 cells after 48 hrs by SRB assay; type: functional; details: U-251, 48 h
MCF7 = assay: Growth inhibition of human MCF7 cells after 48 hrs by SRB assay; type: functional; details: MCF7, 48 h
MDA-MB-231 = assay: Growth inhibition of human MDA-MB-231 cells after 48 hrs by SRB assay; type: functional; details: MDA-MB-231, 48 h
[14] = Growth inhibition of human HBC5 cells after 48 hrs by SRB assay; type: functional; details: HBC5, 48 h
[15] = Growth inhibition of human BSY1 cells after 48 hrs by SRB assay; type: functional; details: BSY-1, 48 h
[16] = Growth inhibition of human HBC4 cells after 48 hrs by SRB assay; type: functional; details: HBC4, 48 h
[17] = molecular target: Protein kinase C theta type (Homo sapiens, UniProt Q04759); assay: Displacement of [3H]PDBu from PKCtheta C1B domain (unknown origin)
[18] = molecular target: Protein kinase C eta type (Homo sapiens, UniProt P24723); assay: Displacement of [3H]PDBu from PKCeta C1B domain (unknown origin)
[19] = molecular target: Protein kinase C epsilon type (Homo sapiens, UniProt Q02156); assay: Displacement of [3H]PDBu from PKCepsilon C1B domain (unknown origin)
[20] = molecular target: Protein kinase C delta type (Homo sapiens, UniProt Q05655); assay: Displacement of [3H]PDBu from PKCdelta C1B domain (unknown origin)
[21] = molecular target: Protein kinase C gamma type (Homo sapiens, UniProt P05129); assay: Displacement of [3H]PDBu from PKCgamma C1A domain (unknown origin)
[22] = molecular target: Protein kinase C beta type (Homo sapiens, UniProt P05771); assay: Displacement of [3H]PDBu from PKCbeta C1A domain (unknown origin)
[23] = molecular target: Protein kinase C alpha type (Homo sapiens, UniProt P17252); assay: Displacement of [3H]PDBu from PKCalpha C1A domain (unknown origin)

Sequence of Protein kinase C delta type (Q05655 whole entry, the tested form may be a part): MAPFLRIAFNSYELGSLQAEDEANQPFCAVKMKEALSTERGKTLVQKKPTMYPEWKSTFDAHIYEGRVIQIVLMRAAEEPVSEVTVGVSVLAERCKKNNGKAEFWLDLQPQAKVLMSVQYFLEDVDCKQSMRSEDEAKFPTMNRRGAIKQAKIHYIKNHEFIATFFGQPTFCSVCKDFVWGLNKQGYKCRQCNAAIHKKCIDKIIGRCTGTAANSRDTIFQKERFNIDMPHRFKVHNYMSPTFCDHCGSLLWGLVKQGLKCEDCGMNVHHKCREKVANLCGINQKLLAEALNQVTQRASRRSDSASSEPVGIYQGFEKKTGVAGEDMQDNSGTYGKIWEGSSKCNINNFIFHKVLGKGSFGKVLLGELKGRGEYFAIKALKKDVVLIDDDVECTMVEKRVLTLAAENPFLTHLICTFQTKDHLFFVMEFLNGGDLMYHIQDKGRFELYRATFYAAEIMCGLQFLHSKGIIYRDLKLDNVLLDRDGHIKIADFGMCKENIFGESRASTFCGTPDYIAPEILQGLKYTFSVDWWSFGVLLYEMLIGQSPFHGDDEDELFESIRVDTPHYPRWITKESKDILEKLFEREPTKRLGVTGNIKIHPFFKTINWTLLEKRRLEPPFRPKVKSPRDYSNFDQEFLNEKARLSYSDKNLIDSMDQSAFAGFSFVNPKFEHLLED
Sequence of Protein kinase C eta type (P24723 whole entry, the tested form may be a part): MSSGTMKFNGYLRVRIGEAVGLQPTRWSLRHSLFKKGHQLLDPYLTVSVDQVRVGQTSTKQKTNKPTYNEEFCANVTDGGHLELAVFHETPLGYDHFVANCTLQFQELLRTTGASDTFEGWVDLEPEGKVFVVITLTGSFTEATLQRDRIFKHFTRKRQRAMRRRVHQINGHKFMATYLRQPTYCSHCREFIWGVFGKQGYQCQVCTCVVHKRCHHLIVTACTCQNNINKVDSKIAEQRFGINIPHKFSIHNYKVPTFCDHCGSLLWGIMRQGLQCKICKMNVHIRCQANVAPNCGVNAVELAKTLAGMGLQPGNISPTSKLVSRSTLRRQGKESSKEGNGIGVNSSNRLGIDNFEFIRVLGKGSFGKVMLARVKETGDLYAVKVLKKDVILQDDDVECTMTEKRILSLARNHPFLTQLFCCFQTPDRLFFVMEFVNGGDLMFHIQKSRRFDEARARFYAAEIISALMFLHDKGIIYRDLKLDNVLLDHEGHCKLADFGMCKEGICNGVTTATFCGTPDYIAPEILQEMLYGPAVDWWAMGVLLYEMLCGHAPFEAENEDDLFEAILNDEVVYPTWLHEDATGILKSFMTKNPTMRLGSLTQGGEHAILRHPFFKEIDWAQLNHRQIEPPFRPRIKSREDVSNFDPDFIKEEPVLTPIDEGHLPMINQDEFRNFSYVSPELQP
Sequence of Protein kinase C beta type (P05771 whole entry, the tested form may be a part): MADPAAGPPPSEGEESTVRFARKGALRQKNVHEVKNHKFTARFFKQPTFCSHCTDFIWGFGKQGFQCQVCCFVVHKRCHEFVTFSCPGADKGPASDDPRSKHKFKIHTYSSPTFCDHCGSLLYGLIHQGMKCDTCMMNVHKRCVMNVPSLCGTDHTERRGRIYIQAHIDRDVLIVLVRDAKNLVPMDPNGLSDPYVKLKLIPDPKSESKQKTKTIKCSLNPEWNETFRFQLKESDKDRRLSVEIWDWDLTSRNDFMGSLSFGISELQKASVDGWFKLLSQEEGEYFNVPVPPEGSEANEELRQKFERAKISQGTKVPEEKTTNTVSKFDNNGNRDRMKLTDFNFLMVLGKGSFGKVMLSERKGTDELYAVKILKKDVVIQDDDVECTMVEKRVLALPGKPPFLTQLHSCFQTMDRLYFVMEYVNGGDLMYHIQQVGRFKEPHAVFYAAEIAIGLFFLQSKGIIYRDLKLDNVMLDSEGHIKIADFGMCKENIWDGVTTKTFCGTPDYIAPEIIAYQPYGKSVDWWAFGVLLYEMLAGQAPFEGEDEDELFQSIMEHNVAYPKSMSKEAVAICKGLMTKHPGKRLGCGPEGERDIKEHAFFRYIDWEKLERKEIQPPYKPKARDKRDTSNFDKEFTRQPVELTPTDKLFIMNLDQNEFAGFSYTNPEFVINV
Sequence of Protein kinase C epsilon type (Q02156 whole entry, the tested form may be a part): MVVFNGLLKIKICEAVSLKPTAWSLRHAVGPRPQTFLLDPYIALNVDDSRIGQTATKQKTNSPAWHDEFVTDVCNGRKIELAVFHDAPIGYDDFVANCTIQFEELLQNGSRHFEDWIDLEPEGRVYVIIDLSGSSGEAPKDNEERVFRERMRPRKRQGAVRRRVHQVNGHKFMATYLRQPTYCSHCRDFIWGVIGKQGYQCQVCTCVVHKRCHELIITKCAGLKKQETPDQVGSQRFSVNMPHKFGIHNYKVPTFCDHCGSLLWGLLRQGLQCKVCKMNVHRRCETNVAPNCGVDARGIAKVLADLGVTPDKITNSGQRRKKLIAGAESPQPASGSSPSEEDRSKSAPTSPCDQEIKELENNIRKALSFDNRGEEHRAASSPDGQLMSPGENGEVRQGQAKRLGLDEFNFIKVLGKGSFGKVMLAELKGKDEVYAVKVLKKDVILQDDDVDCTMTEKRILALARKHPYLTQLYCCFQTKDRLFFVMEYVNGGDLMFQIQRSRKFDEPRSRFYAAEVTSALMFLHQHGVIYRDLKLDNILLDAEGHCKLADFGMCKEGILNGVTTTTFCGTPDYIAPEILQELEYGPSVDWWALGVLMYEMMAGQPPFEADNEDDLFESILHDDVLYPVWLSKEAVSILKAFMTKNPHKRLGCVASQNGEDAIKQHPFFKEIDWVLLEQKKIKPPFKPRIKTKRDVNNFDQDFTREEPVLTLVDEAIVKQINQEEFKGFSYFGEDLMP
Sequence of Protein kinase C theta type (Q04759 whole entry, the tested form may be a part): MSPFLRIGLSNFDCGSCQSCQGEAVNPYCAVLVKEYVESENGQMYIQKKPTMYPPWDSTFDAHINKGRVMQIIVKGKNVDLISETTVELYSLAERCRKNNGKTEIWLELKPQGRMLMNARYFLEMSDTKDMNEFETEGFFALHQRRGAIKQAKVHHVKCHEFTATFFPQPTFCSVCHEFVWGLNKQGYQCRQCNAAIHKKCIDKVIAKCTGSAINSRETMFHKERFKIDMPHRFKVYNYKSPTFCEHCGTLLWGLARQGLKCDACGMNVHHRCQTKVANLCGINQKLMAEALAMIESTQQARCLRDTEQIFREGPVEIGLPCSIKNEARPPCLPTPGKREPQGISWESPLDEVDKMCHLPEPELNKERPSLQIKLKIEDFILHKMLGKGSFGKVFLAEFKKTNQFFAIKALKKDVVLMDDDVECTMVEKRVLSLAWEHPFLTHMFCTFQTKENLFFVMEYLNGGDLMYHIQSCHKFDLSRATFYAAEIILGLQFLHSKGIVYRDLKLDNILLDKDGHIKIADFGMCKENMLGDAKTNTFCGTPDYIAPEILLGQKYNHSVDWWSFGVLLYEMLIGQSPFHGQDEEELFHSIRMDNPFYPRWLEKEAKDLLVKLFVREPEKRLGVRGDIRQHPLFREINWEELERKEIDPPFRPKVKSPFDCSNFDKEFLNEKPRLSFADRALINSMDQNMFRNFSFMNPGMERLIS

## CO[C@@H](CC[C@H](C)[C@H]1O[C@@]23C[C@H](OC(=O)C[C@H]([C@@H](C)O)OC(=O)C[C@](O)(O2)[C@H](C)CC3(C)C)[C@@H]1C)c1cccc(O)c1 [DEBROMOAPLYSIATOXIN]
Mus musculus [1]
  Activity: Toxic
Mus musculus [2]
  Activity: Toxic
Mus musculus [3]
  Activity: 80%
Mus musculus [4]
  Activity: 90%
[5]
  viability at 0.1 µM: 50%
[6]
  viability at 1 µM: 50%
[7]
  viability at 0.01 µM: 60%
Raji [8]
  Activity: 24.4%
Raji [9]
  Activity: 21.1%
Raji [10]
  Activity: 22.9%

## CC1=C2CC(=O)O[C@@H]([C@@H](C)O)CC(=O)O[C@H]3C[C@@](O2)(O[C@H]([C@@H](C)CCCc2cccc(O)c2)[C@H]3C)C(C)(C)C1
DU-145
  GI50: 7.94 µM
PC-3
  GI50: 3.72 µM
MKN-74
  GI50: 6.17 µM
MKN-45
  GI50: 1.82 µM
MKN-28
  GI50: 4.68 µM
MKN-7
  GI50: 4.07 µM
[11]
  GI50: 8.13 µM
St-4
  GI50: 0.741 µM
ACHN
  GI50: 5.5 µM
[12]
  GI50: 11 µM
SK-OV-3
  GI50: 15.5 µM
OVCAR-8
  GI50: 12.6 µM
OVCAR-4
  GI50: 6.61 µM
OVCAR-5
  GI50: 4.17 µM
OVCAR-3
  GI50: 8.51 µM
DMS-114
  GI50: 4.47 µM
LOX IMVI
  GI50: 0.832 µM
DMS-273
  GI50: 4.37 µM
A549
  GI50: 2.09 µM
NCI-H522
  GI50: 5.5 µM
NCI-H460
  GI50: 0.871 µM
NCI-H226
  GI50: 10.7 µM
HCT-116
  GI50: 5.62 µM
NCI-H23
  GI50: 7.94 µM
HCT-15
  GI50: 6.76 µM
KM12
  GI50: 4.17 µM
HT-29
  GI50: 4.47 µM
[13]
  GI50: 1.86 µM
SNB-78
  GI50: 15.5 µM
SNB-75
  GI50: 9.77 µM
SF-539
  GI50: 11.2 µM
SF-295
  GI50: 3.24 µM
SF-268
  GI50: 10.2 µM
U-251
  GI50: 4.57 µM
MCF7
  GI50: 4.37 µM
MDA-MB-231
  GI50: 1.07 µM
[14]
  GI50: 11.7 µM
[15]
  GI50: 4.07 µM
[16]
  GI50: 0.55 µM
Mus musculus [4]
  Activity: Not Active
[5]
  viability at 0.1 µM: 60%
[6]
  viability at 1 µM: 60%
[7]
  viability at 0.01 µM: 60%
Raji [8]
  Activity: 16.2%
Raji [9]
  Activity: 11%
Raji [10]
  Activity: 14.1%

## C[C@@H]1[C@@H]([C@@H](C)CCCc2cccc(O)c2)O[C@@]23C[C@@H]1OC(=O)C[C@H]([C@@H](C)O)OC(=O)C[C@](O)(O2)[C@H](C)CC3(C)C [DEMETHOXYDEBROMOAPLYSIATOXIN]
[17]
  Ki: 0.0002 µM
[18]
  Ki: 0.00018 µM
[19]
  Ki: 0.0013 µM
[20]
  Ki: 0.00032 µM
[21]
  Ki: 0.00069 µM
[22]
  Ki: 0.0015 µM
[23]
  Ki: 0.001 µM
DU-145
  GI50: 10.7 µM
PC-3
  GI50: 4.57 µM
MKN-74
  GI50: 6.92 µM
MKN-45
  GI50: 6.76 µM
MKN-28
  GI50: 6.76 µM
MKN-7
  GI50: 2.75 µM
[11]
  GI50: 5.5 µM
St-4
  GI50: 0.0129 µM
ACHN
  GI50: 2.51 µM
[12]
  GI50: 15.1 µM
SK-OV-3
  GI50: 7.24 µM
OVCAR-8
  GI50: 14.8 µM
OVCAR-4
  GI50: 7.24 µM
OVCAR-5
  GI50: 4.9 µM
OVCAR-3
  GI50: 8.13 µM
DMS-114
  GI50: 5.5 µM
LOX IMVI
  GI50: 1.62 µM
DMS-273
  GI50: 3.47 µM
A549
  GI50: 0.145 µM
NCI-H522
  GI50: 4.79 µM
NCI-H460
  GI50: 0.01 µM
NCI-H226
  GI50: 0.0525 µM
HCT-116
  GI50: 8.71 µM
NCI-H23
  GI50: 6.17 µM
HCT-15
  GI50: 9.77 µM
KM12
  GI50: 3.47 µM
HT-29
  GI50: 12.3 µM
[13]
  GI50: 0.0692 µM
SNB-78
  GI50: 6.46 µM
SNB-75
  GI50: 10.2 µM
SF-539
  GI50: 11.5 µM
SF-295
  GI50: 2.95 µM
SF-268
  GI50: 13.2 µM
U-251
  GI50: 7.24 µM
MCF7
  GI50: 5.62 µM
MDA-MB-231
  GI50: 0.049 µM
[14]
  GI50: 11.2 µM
[15]
  GI50: 6.17 µM
[16]
  GI50: < 0.01 µM
Mus musculus [1]
  Activity: Toxic
Mus musculus [2]
  Activity: Toxic
Mus musculus [3]
  Activity: 70%
Mus musculus [4]
  Activity: 90%
[5]
  viability at 0.1 µM: 50%
[6]
  viability at 1 µM: 50%
[7]
  viability at 0.01 µM: 60%
Raji [8]
  Activity: 18.6%
Raji [9]
  Activity: 14.3%
Raji [10]
  Activity: 17.9%
